Test [1] concerns the target T1, glucagon receptor (GCGR) overexpressed CHO-K1 cells or human primary hepatocytes (Homo sapiens, UniProt P47871).
T1 construct: expressed in transfected cells; host or cells: GCGR overexpressed CHO-K1 cells or human primary hepatocytes (endogenous receptor)
Kind of test: Glucagon cAMP inhibition assay (Cisbio cAMP Dynamic 2 HTRF). In kind it is cell-based. The procedure, abridged:
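GCGR-overexpressing CHO-K1 cells or human primary hepatocytes in HBSS with 0.1% BSA and 800 nM IBMX, pre-incubated 30 min with serially diluted compounds (1% DMSO final), then stimulated 30 min at room temperature with glucagon at its EC50. cAMP measured by HTRF after 60 min lysis; IC50 by non-linear regression.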

Test [2] concerns the target T2, glucagon receptor (GCGR) (Homo sapiens, UniProt P47871).
T2 construct: expressed in transfected cells; host or cells: CHO-K1 cells overexpressing GCGR (membrane fractions)
Kind of test: I125-glucagon binding assay (competition, GCGR membrane fractions). The procedure, abridged: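 Membranes from CHO-K1 cells overexpressing GCGR, 7.5 μg/well in 50 mM Tris pH 7.4 with 0.5% BSA, were preincubated 5 min with serially diluted compounds, then given 0.0625 nM final I^125-glucagon for 30 min at 25° C. Bound label was filtered on PEI-coated GF/B and counted; IC50 by non-linear regression.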

The mark [3] stands for this setting: inhibition of glucagon (EC50 concentration) induced cAMP production.
The mark [4] stands for this setting: competition with I125-glucagon 0.0625 nM, membrane fractions of GCGR overexpressed CHO-K1 cells.

Consider ten compounds from patent US11384060B2, “Amide compounds and use thereof” (ALPHALA CO., LTD., priority 2017, dated 2022).

SMILES strings stand for the structures. Read-outs that look alike come from different tables or passages of the source.

T2 sequence (P47871 26-477): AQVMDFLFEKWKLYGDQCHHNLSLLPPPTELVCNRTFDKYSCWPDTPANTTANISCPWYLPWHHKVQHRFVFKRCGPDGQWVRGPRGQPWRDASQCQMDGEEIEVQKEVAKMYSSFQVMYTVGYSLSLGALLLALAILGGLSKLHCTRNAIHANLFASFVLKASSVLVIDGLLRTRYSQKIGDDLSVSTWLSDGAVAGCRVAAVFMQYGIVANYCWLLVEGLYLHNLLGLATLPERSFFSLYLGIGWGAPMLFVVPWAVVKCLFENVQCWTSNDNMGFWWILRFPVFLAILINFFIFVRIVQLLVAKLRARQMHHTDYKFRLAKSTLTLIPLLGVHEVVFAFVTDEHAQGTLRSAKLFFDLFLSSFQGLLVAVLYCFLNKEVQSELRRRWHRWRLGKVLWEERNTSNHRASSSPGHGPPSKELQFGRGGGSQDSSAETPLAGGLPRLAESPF
T1 sequence (P47871 26-477): as above

Take `CCC(C)[C@H](Nc1ccc(C(=O)NCCC(=O)O)cc1)c1nnc(-c2ccc(C(C)(C)C)cc2)o1` (stereo partly drawn) [Compound 20-3, 3-(4-(((1S)-1-(5-(4-(tert-butyl)phenyl)-1,3,4-oxadiazol-2-yl)-2-methylbutyl)amino)benzamido)propanoic Acid]: in test [1], the “IC50 cAMP” value turned out to be 9163 nM. In test [2], the half-inhibitory concentration (IC50) (usually the concentration that inhibits the measured activity by half) was 0.801 µM.
For the compound `CCOC[C@@H](COc1ccc(-c2cc3ccccc3o2)cc1)Nc1ccc(C(=O)NCCC(=O)O)cc1` [Compound 6-3, (S)-3-(4-((1-(4-(benzofuran-2-yl)phenoxy)-3-ethoxypropan-2-yl)amino)benzamido)propanoic Acid], the “IC50 cAMP” value in test [1] (setting [3]) is listed as 3859 nM. The IC50 in test [2] (setting [4]) came to 0.479 µM.
In the case of `CC(C)[C@@H](COc1ccc(-c2ccc(C(F)(F)F)cc2Cl)c(Cl)c1)Nc1ccc(C(=O)NC[C@@H](O)C(=O)O)cc1` [Compound 3-2, (R)-3-(4-(((S)-1-((2,2′-dichloro-4′-(trifluoromethyl)-[1,1′-biphenyl]-4-yl)oxy)-3-methylbutan-2-yl)amino)benzamido)-2-hydroxypropanoic Acid], the “IC50 cAMP” value in test [1] (setting [3]) is on record as above 10000 nM. This compound also came in with an IC50 in test [2] (setting [4]) of 0.135 µM.
For `CC[C@H](C)[C@@H](COc1ccc(-c2ccc(Cl)cc2Cl)cc1)Nc1ccc(C(=O)NCc2nnn[nH]2)cc1` [Compound 1-13, N-((1H-tetrazol-5-yl)methyl)-4-(((2S,3S)-1-((2′,4′-dichloro-[1,1′-biphenyl]-4-yl)oxy)-3-methylpentan-2-yl)amino)benzamide] the same measures were 1730 nM and 0.141 µM.
For `CC[C@H](C)[C@@H](COc1cc(Cl)c(-c2cc3ccccc3o2)cc1Cl)Nc1ccc(C(=O)NCCC(=O)O)cc1` [Compound 3-19, 3-(4-(((2S,3S)-1-(4-(benzofuran-2-yl)-2,5-dichlorophenoxy)-3-methylpentan-2-yl)amino)benzamido)propanoic Acid] the same measures were 130 nM and 0.064 µM.
For `CC(C)[C@@H](COc1ccc(-c2ccc(Cl)cc2Cl)c(F)c1)Nc1ccc(C(=O)NCCC(=O)O)cc1` [Compound 8-9, (S)-3-(4-((1-((2′,4′-dichloro-2-fluoro-[1,1′-biphenyl]-4-yl)oxy)-3-methylbutan-2-yl)amino)benzamido)propanoic Acid] the same measures were 365 nM and 0.145 µM.
Regarding `CC[C@H](C)[C@@H](COc1ccc(-c2ccc(C(C)(C)C)cc2)cc1)Nc1ccc(C(=O)NCCC(=O)O)cc1` [Compound 1-3, 3-(4-(((2S,3S)-1-((4′-(tert-butyl)-[1,1′-biphenyl]-4-yl)oxy)-3-methylpentan-2-yl)amino)benzamido)propanoic Acid], the “IC50 cAMP” value in test [1] (setting [3]) was 884.4 nM. Moreover, the 50% inhibitory concentration (IC50) in test [2] (setting [4]) amounted to 0.319 µM.
Consider `CC(C)(C)c1nnc(-c2ccc(OC[C@@H](Nc3ccc(C(=O)NCCC(=O)O)cc3)c3ccc(-c4ccc(Cl)cc4Cl)cc3)nc2)o1` [Compound 15-34, (S)-3-(4-((2-((5-(5-(tert-butyl)-1,3,4-oxadiazol-2-yl)pyridin-2-yl)oxy)-1-(2′,4′-dichloro-[1,1′-biphenyl]-4-yl)ethyl)amino)benzamido)propanoic Acid], for which the “IC50 cAMP” value in test [1] is 4558 nM. For the same compound, the half-inhibitory concentration (IC50) in test [2] came to 3 µM.
For `O=C(O)CCNC(=O)c1ccc(N[C@@H](Cc2cccc3ccccc23)C(=O)Nc2ccc(-c3cc4ccccc4o3)cc2)cc1` [Compound 23-16] the same measures were 1193 nM and 3.01 µM.
As for `O=C(O)CCNC(=O)c1ccc(N[C@@H](Cc2ccccc2)C(=O)Nc2ccc(-c3cc4ccccc4o3)cc2)cc1` [Compound 23-8, (S)-3-(4-((1-((4-(benzofuran-2-yl)phenyl)amino)-1-oxo-3-phenylpropan-2-yl)amino)benzamido)propanoic Acid], the “IC50 cAMP” value in test [1] was 2000 nM. For the same compound, the IC50 in test [2] (uM) is above 10 µM.
